A value given as a limit tells only on which side of the number the result lay.

The test relates to HEK293T cells carrying the ATF4 luciferase reporter. Nature of the test: ATF4-Luc assay, in vitro model of Vanishing Cell White Matter Disease (VWMD). It is filed as cell-based. As to conditions: Homo sapiens, HEK-293T, 1 μg/mL tunicamycin, 7 hours, One Glo luminescence. The gist of the method:
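Stable HEK293T line with human ATF4 5′-UTR–firefly luciferase reporter treated with 1 μg/mL tunicamycin plus 200 nM compound for 7 h. Luminescence read; EC50 derived.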
`CCn1nc(C)cc1C(=O)NC12CC(NC(=O)COc3ccc(Cl)c(F)c3)(C1)C2` [Compound 359, N-{3-[2-(4-chloro-3-fluorophenoxy)acetamido]bicyclo[1.1.1]pentan-1-yl}-1-ethyl-3-methyl-1H-pyrazole-5-carboxamide]: the EC50 is 250 to 1000 nM.

Turning to `CCCc1ncc(C(=O)NC23CC(NC(=O)COc4ccc(Cl)c(F)c4)(C2)C3)s1` [Compound 293, N-{3-[2-(4-chloro-3-fluorophenoxy)acetamido]bicyclo[1.1.1]pentan-1-yl}-2-propyl-1,3-thiazole-5-carboxamide], the EC50 was under 50 nM. Turning to `Cc1ccc(C(=O)NC23CC(NC(=O)COc4ccc(Cl)c(Cl)c4)(C2)C3)c(C)n1` [Compound 687, N-{3-[2-(3,4-dichlorophenoxy)acetamido]bicyclo[1.1.1]pentan-1-yl}-2,6-dimethylpyridine-3-carboxamide], the EC50 fell in the range of 250 to 1000 nM.

As to `Cc1nnc(NC23CC(NC(=O)COc4ccc(Cl)c(F)c4)(C2)C3)o1` [Compound 393, 2-(4-chloro-3-fluorophenoxy)-N-{3-[(5-methyl-1,3,4-oxadiazol-2-yl)amino]bicyclo[1.1.1]pentan-1-yl}acetamide], the EC50 is over 2000 nM.

`O=C(COc1ccc(Cl)c(F)c1)NC12CCC(NC(=O)c3ccc(C(F)(F)F)cn3)(CC1)C[C@@H]2O` [Compound 728, N-{(3S)-4-[2-(4-chloro-3-fluorophenoxy)acetamido]-3-hydroxybicyclo[2.2.2]octan-1-yl}-5-(trifluoromethyl)pyridine-2-carboxamide]: the EC50 is under 50 nM.

On to `CC(=O)Nc1nc(C(=O)NC23CC(NC(=O)COc4ccc(Cl)c(F)c4)(C2)C3)cs1` [Compound 870, 2-acetamido-N-{3-[2-(4-chloro-3-fluorophenoxy)acetamido]bicyclo[1.1.1]pentan-1-yl}-1,3-thiazole-4-carboxamide], for which the EC50 is over 2000 nM. For `CSc1ncccc1C(=O)NC12CC(NC(=O)COc3ccc(Cl)c(F)c3)(C1)C2` [Compound 828, N-{3-[2-(4-chloro-3-fluorophenoxy)acetamido]bicyclo[1.1.1]pentan-1-yl}-2-(methylsulfanyl)pyridine-3-carboxamide], the EC50 is over 2000 nM. On to `CCc1nc(C(=O)NC23CC(NC(=O)COc4ccc(Cl)c(Cl)c4)(C2)C3)cs1` [Compound 698, N-{3-[2-(3,4-dichlorophenoxy)acetamido]bicyclo[1.1.1]pentan-1-yl}-2-ethyl-1,3-thiazole-4-carboxamide], for which the EC50 is under 50 nM. With `Cc1ncc(C(=O)NC23CC(NC(=O)COc4ccc(Cl)c(Cl)c4)(C2)C3)s1` [Compound 585, N-{3-[2-(3,4-dichlorophenoxy)acetamido]bicyclo[1.1.1]pentan-1-yl}-2-methyl-1,3-thiazole-5-carboxamide] the figure was 50 to 250 nM. `O=C(COc1ccc(Cl)c(F)c1)NC12CCC(NC(=O)c3cccc(N4CCOCC4)n3)(CC1)CC2O` (centres unmarked) [Compound 942, N-{4-[2-(4-chloro-3-fluorophenoxy)acetamido]-3-hydroxybicyclo[2.2.2]octan-1-yl}-6-(morpholin-4-yl)pyridine-2-carboxamide]: the EC50 was 1000 to 2000 nM. Turning to `O=C(COc1ccc(Cl)c(F)c1)NC12CCC(NC(=O)c3ccno3)(CC1)CC2O` (centres unmarked) [Compound 628, N-{4-[2-(4-chloro-3-fluorophenoxy)acetamido]-3-hydroxybicyclo[2.2.2]octan-1-yl}-1,2-oxazole-5-carboxamide], the EC50 fell in the range of 250 to 1000 nM. Then `O=C(COc1ccc(Cl)c(F)c1)NC12CC(NC(=O)c3ccc4ncccc4n3)(C1)C2` [Compound 658, N-{3-[2-(4-chloro-3-fluorophenoxy)acetamido]bicyclo[1.1.1]pentan-1-yl}-1,5-naphthyridine-2-carboxamide], with 50 to 250 nM; and `Cc1nc(C(=O)NC23CCC(NC(=O)COc4ccc(Cl)c(Cl)c4)(CC2)[C@@H](O)C3)cs1` [Compound 701, N-{(3S)-4-[2-(3,4-dichlorophenoxy)acetamido]-3-hydroxybicyclo[2.2.2]octan-1-yl}-2-methyl-1,3-thiazole-4-carboxamide], with 50 to 250 nM; and `Cc1cnc2cccc(C(=O)NC34CC(NC(=O)COc5ccc(Cl)c(F)c5)(C3)C4)c2n1` [Compound 843, N-{3-[2-(4-chloro-3-fluorophenoxy)acetamido]bicyclo[1.1.1]pentan-1-yl}-3-methylquinoxaline-5-carboxamide], with over 2000 nM. Consider `O=C(COc1ccc(Cl)c(F)c1)NC12CC(NC(=O)c3scc4c3OCCO4)(C1)C2` [Compound 873, N-{3-[2-(4-chloro-3-fluorophenoxy)acetamido]bicyclo[1.1.1]pentan-1-yl}-2,3-dihydrothieno[3,4-b][1,4]dioxine-5-carboxamide], for which the half-maximal effective concentration (EC50) was over 2000 nM.

For the compound `Cc1ccc(C(=O)NC23CC(NC(=O)COc4ccc(Cl)c(F)c4)(C2)C3)cn1` [Compound 140, N-{3-[2-(4-chloro-3-fluorophenoxy)acetamido]bicyclo[1.1.1]pentan-1-yl}-6-methylpyridine-3-carboxamide], the concentration giving a half-maximal response (EC50) lay within 250 to 1000 nM. As for `Cc1nnc2c(NC34CC(NC(=O)COc5ccc(Cl)c(F)c5)(C3)C4)nccn12` [Compound 465, 2-(4-chloro-3-fluorophenoxy)-N-{3-[(3-methyl[1,2,4]triazolo[4,3-a]pyrazin-8-yl)amino]bicyclo[1.1.1]pentan-1-yl}acetamide], the EC50 was over 2000 nM. Regarding `Cc1cncc(C(=O)NC23CC(NC(=O)COc4ccc(Cl)c(F)c4)(C2)C3)c1` [Compound 644, N-{3-[2-(4-chloro-3-fluorophenoxy)acetamido]bicyclo[1.1.1]pentan-1-yl}-5-methylpyridine-3-carboxamide], the EC50 lay within 50 to 250 nM. `O=C(COc1ccc(Cl)c(F)c1)NC12CCC(NC(=O)c3cc(C(F)(F)F)ccn3)(CC1)CC2O` (centres unmarked) [Compound 933, N-{4-[2-(4-chloro-3-fluorophenoxy)acetamido]-3-hydroxybicyclo[2.2.2]octan-1-yl}-4-(trifluoromethyl)pyridine-2-carboxamide]: the EC50 fell in the range of 50 to 250 nM.

With `CCc1cc(C(=O)NC23CC(NC(=O)COc4ccc(Cl)c(F)c4)(C2)C3)no1` [Compound 247, N-{3-[2-(4-chloro-3-fluorophenoxy)acetamido]bicyclo[1.1.1]pentan-1-yl}-5-ethyl-1,2-oxazole-3-carboxamide], the EC50 lay within 250 to 1000 nM.

On to `Cc1noc2ncc(C(=O)NC34CC(NC(=O)COc5ccc(Cl)c(F)c5)(C3)C4)cc12` [Compound 791, N-{3-[2-(4-chloro-3-fluorophenoxy)acetamido]bicyclo[1.1.1]pentan-1-yl}-3-methyl[1,2]oxazolo[5,4-b]pyridine-5-carboxamide], for which the EC50 is over 2000 nM. For the compound `Cc1cc(C(=O)NC23CC(NC(=O)COc4ccc(Cl)c(F)c4)(C2)C3)ncc1Cl` [Compound 664, 5-chloro-N-{3-[2-(4-chloro-3-fluorophenoxy)acetamido]bicyclo[1.1.1]pentan-1-yl}-4-methylpyridine-2-carboxamide], the EC50 lay in the range of 250 to 1000 nM. With `COCc1nc(C(=O)NC23CCC(NC(=O)COc4ccc(Cl)c(F)c4)(CC2)C(O)C3)cs1` (centres unmarked) [Compound 523, N-{4-[2-(4-chloro-3-fluorophenoxy)acetamido]-3-hydroxybicyclo[2.2.2]octan-1-yl}-2-(methoxymethyl)-1,3-thiazole-4-carboxamide] the figure was 50 to 250 nM; with `Cc1ncc(C(=O)NC23CC(NC(=O)COc4ccc(Cl)c(F)c4)(C2)C3)c(C)n1` [Compound 784, N-{3-[2-(4-chloro-3-fluorophenoxy)acetamido]bicyclo[1.1.1]pentan-1-yl}-2,4-dimethylpyrimidine-5-carboxamide], over 2000 nM; with `CS(=O)(=O)Nc1cccc(C(=O)NC23CC(NC(=O)COc4ccc(Cl)c(F)c4)(C2)C3)c1` [Compound 851, N-{3-[2-(4-chloro-3-fluorophenoxy)acetamido]bicyclo[1.1.1]pentan-1-yl}-3-[(methanesulfonyl)amino]benzamide], 250 to 1000 nM. As to `O=C(COc1ccc(Cl)c(F)c1)NC12CC(Nc3cnc(C(F)(F)F)cn3)(C1)C2` [Compound 102, 2-(4-chloro-3-fluorophenoxy)-N-(3-{[5-(trifluoromethyl)pyrazin-2-yl]amino}bicyclo[1.1.1]pentan-1-yl)acetamide], the EC50 lay in the range of 1000 to 2000 nM. For the compound `O=C(COc1ccc(Cl)c(F)c1)NC12CC(Nc3ccnc(N4CCOCC4)n3)(C1)C2` [Compound 721, 2-(4-chloro-3-fluorophenoxy)-N-(3-{[2-(morpholin-4-yl)pyrimidin-4-yl]amino}bicyclo[1.1.1]pentan-1-yl)acetamide], the EC50 is over 2000 nM. With `O=C(COc1ccc(Cl)c(F)c1)NC12CCC(NC(=O)c3ccc(-c4ccc(F)cc4)cn3)(CC1)CC2O` (centres unmarked) [Compound 939, N-{4-[2-(4-chloro-3-fluorophenoxy)acetamido]-3-hydroxybicyclo[2.2.2]octan-1-yl}-5-(4-fluorophenyl)pyridine-2-carboxamide] the figure was over 2000 nM; with `Cc1cnc(C(=O)NC23CC(NC(=O)COc4ccc(C(F)(F)F)nc4)(C2)C3)cn1` [Compound 162, 5-methyl-N-[3-(2-{[6-(trifluoromethyl)pyridin-3-yl]oxy}acetamido)bicyclo[1.1.1]pentan-1-yl]pyrazine-2-carboxamide], over 2000 nM; with `CN(C(=O)COc1ccc(Cl)c(F)c1)C12CC(N(C)C(=O)c3cnc(C(F)F)cn3)(C1)C2` [Compound 362, N-(3-{[(4-chloro-3-fluorophenoxy)acetyl](methyl)amino}bicyclo[1.1.1]pentan-1-yl)-5-(difluoromethyl)-N-methylpyrazine-2-carboxamide], over 2000 nM. With `Cc1cnc(C(=O)NC23CCC(NC(=O)COc4ccc(Cl)c(F)c4)(CC2)[C@@H](O)C3)cn1` [Compound 666, N-{(3S)-4-[2-(4-chloro-3-fluorophenoxy)acetamido]-3-hydroxybicyclo[2.2.2]octan-1-yl}-5-methylpyrazine-2-carboxamide] the figure was under 50 nM.

Turning to `O=C(COc1ccc(Cl)c(Cl)c1)NC12CC(Nc3cnc(C(F)(F)F)cn3)(C1)C2` [Compound 101, 2-(3,4-dichlorophenoxy)-N-(3-{[5-(trifluoromethyl)pyrazin-2-yl]amino}bicyclo-[1.1.1]pentan-1-yl)acetamide], the EC50 is over 2000 nM.

As a reminder, the EC50 is the concentration that produces a half-maximal response.

These data come from US10913727B2, “Modulators of the integrated stress pathway” (Calico Life Sciences LLC, priority 2016, dated 2021).
